This note sets out measurements from ChEMBL document CHEMBL1177878, “Synthesis and hypolipidemic activity of novel 2-(4-(2-substituted aminothiazole-4-yl) phenoxy) acetic acid derivatives” (Eur J Med Chem, 2010).

Series [1] relates to Rattus norvegicus. Nature of the series: Antihyperlipidemic activity in high fat diet-induced hyperlipidemic Sprague-Dawley rat model assessed as reduction of body weight at 50 mg/kg, po for 7 days. Format: functional.
Series [2] has as its system Rattus norvegicus. Nature of the series: Antihyperlipidemic activity in high fat diet-induced hyperlipidemic Sprague-Dawley rat model assessed as reduction of body circumference at 50 mg/kg, po for 7 days. Format: functional.
Series [3] concerns Rattus norvegicus. The experiment in a line: Toxicity in high fat diet-induced hyperlipidemic Sprague-Dawley rat model assessed as increase of locomotor activity at 50 mg/kg, po for 7 days measured for 5 mins. Format: organism-based. Also on record: dose 50 mg/kg, route oral. To be noted: in vivo.
Series [4] concerns Rattus norvegicus. The experiment in a line: Antihyperlipidemic activity in high fat diet-induced hyperlipidemic Sprague-Dawley rat model assessed as reduction of blood cholesterol level at 50 mg/kg, po for 7 days (reference value: 128.8 +/- 1.20 mg/dl). Type of series: functional.
Series [5] has as its system Rattus norvegicus. The experiment in a line: Antihyperlipidemic activity in high fat diet-induced hyperlipidemic Sprague-Dawley rat model assessed as reduction of blood triglyceride level at 50 mg/kg, po for 7 days (reference value: 142.4 +/- 1.53 mg/dl). Type of series: functional.
The test system of series [6] is Rattus norvegicus. The experiment in a line: Antihyperlipidemic activity in high fat diet-induced hyperlipidemic Sprague-Dawley rat model assessed as reduction of blood LDL level at 50 mg/kg, po for 7 days (reference value: 51.8 +/- 2.03 mg/dl). Type of series: functional.
Series [7] concerns Rattus norvegicus. The experiment in a line: Antihyperlipidemic activity in high fat diet-induced hyperlipidemic Sprague-Dawley rat model assessed as increase of blood HDL level at 50 mg/kg, po for 7 days (reference value: 18.6 +/- 1.36 mg/dl). Format: functional.
Series [8] relates to Rattus norvegicus. Nature of the series: Antihyperlipidemic activity in high fat diet-induced hyperlipidemic Sprague-Dawley rat model assessed as reduction of blood VLDL level at 50 mg/kg, po for 7 days (reference value: 26.2 +/- 1.20 mg/dl). Format: functional.
Series [9] deals with Rattus norvegicus. The experiment in a line: Antihyperlipidemic activity in high fat diet-induced hyperlipidemic Sprague-Dawley rat model assessed as reduction of body weight at 250 mg/kg, po for 7 days. Type of series: functional.
Series [10] has as its system Rattus norvegicus. Nature of the series: Antihyperlipidemic activity in high fat diet-induced hyperlipidemic Sprague-Dawley rat model assessed as reduction of body circumference at 250 mg/kg, po for 7 days. Format: functional.
Series [11] has as its system Rattus norvegicus. The experiment in a line: Toxicity in high fat diet-induced hyperlipidemic Sprague-Dawley rat model assessed as increase of locomotor activity at 250 mg/kg, po for 7 days measured for 5 mins. Type of series: organism-based. Details: dose 250 mg/kg, route oral. To be noted: in vivo.
The test system of series [12] is Rattus norvegicus. Nature of the series: Antihyperlipidemic activity in high fat diet-induced hyperlipidemic Sprague-Dawley rat model assessed as reduction of blood cholesterol level at 250 mg/kg, po for 7 days (reference value: 128.8 +/- 1.20 mg/dl). Format: functional.
In series [13] the test system is Rattus norvegicus. The experiment in a line: Antihyperlipidemic activity in high fat diet-induced hyperlipidemic Sprague-Dawley rat model assessed as reduction of blood triglyceride level at 250 mg/kg, po for 7 days (reference value: 142.4 +/- 1.53 mg/dl). Type of series: functional.
For series [14], the system named is Rattus norvegicus. The experiment in a line: Antihyperlipidemic activity in high fat diet-induced hyperlipidemic Sprague-Dawley rat model assessed as reduction of blood LDL level at 250 mg/kg, po for 7 days (reference value: 51.8 +/- 2.03 mg/dl). Type of series: functional.
For series [15], the system named is Rattus norvegicus. The experiment in a line: Antihyperlipidemic activity in high fat diet-induced hyperlipidemic Sprague-Dawley rat model assessed as increase of blood HDL level at 250 mg/kg, po for 7 days (reference value: 18.6 +/- 1.36 mg/dl). Type of series: functional.

The structures appear in SMILES notation.

As for `Nc1ccc(C(=O)CNc2nc(-c3ccc(OCC(=O)O)cc3)cs2)cc1`, the Activity was 237.333 g in the series on Rattus norvegicus [1]; 12 cm with Rattus norvegicus [2]; “Toxic” with Rattus norvegicus [3]; 77.6 mg/dL with Rattus norvegicus [4]; 110.4 mg/dL in the series with Rattus norvegicus [5]; 36.8 mg/dL in the series with Rattus norvegicus [6]. Also, the Activity with Rattus norvegicus [7] came to 27 mg/dL; in the series on Rattus norvegicus [8] it was 26.2 mg/dL.

Take `CC(=O)Nc1nc(-c2ccc(OCC(=O)O)cc2)cs1`: the Activity in the series with Rattus norvegicus [1] is 250.833 g; in the series with Rattus norvegicus [2], 12.516 cm; in the series on Rattus norvegicus [3], “Non-toxic”; with Rattus norvegicus [4], 104 mg/dL; with Rattus norvegicus [5], 107.6 mg/dL; in the series with Rattus norvegicus [6], 51.4 mg/dL. The results for the Activity in the series on Rattus norvegicus [7] and with Rattus norvegicus [8] were 31.8 mg/dL and 22.6 mg/dL, respectively.

On to `O=C(O)COc1ccc(-c2csc(NC(=O)c3ccccc3)n2)cc1`, for which the Activity with Rattus norvegicus [1] is 239.666 g; with Rattus norvegicus [2], 13.1 cm; with Rattus norvegicus [3], “Toxic”; in the series on Rattus norvegicus [4], 89.2 mg/dL; in the series with Rattus norvegicus [5], 114.6 mg/dL; in the series on Rattus norvegicus [6], 34.2 mg/dL. Also, the Activity with Rattus norvegicus [7] came out at 28.4 mg/dL; in the series on Rattus norvegicus [8] it was 25 mg/dL.

Take `CCC(=O)Nc1nc(-c2ccc(OCC(=O)O)cc2)cs1`: the Activity in the series with Rattus norvegicus [1] was 224.166 g; in the series on Rattus norvegicus [2] it was 10.483 cm; in the series on Rattus norvegicus [3], “Toxic”; in the series on Rattus norvegicus [4], 86.6 mg/dL; with Rattus norvegicus [5], 103.6 mg/dL; in the series on Rattus norvegicus [6] it was 33 mg/dL. Further, the results for the Activity with Rattus norvegicus [7] and in the series with Rattus norvegicus [8] were 30.4 mg/dL and 21 mg/dL, respectively.

As to `O=C(O)COc1ccc(-c2csc(NC(=O)CCl)n2)cc1`, the Activity in the series on Rattus norvegicus [1] was 230.666 g; in the series on Rattus norvegicus [2], 9.5 cm; in the series with Rattus norvegicus [3], “Toxic”; in the series on Rattus norvegicus [4], 92 mg/dL; in the series with Rattus norvegicus [5], 118.4 mg/dL; with Rattus norvegicus [6], 34.8 mg/dL. Besides, the Activity in the series on Rattus norvegicus [7] amounted to 34.4 mg/dL; with Rattus norvegicus [8] it was 28 mg/dL.

On to `O=C(O)COc1ccc(-c2csc(NCc3ccccc3)n2)cc1`, for which the Activity in the series with Rattus norvegicus [1] is 248.5 g; with Rattus norvegicus [2], 13.066 cm; with Rattus norvegicus [3], “Toxic”; in the series on Rattus norvegicus [4], 122.2 mg/dL; with Rattus norvegicus [5] it was 140.2 mg/dL; in the series with Rattus norvegicus [6] it was 53.8 mg/dL. Further, the Activity came out at 20.2 mg/dL in the series with Rattus norvegicus [7] and 22.4 mg/dL in the series with Rattus norvegicus [8].

In the case of `O=C(O)COc1ccc(-c2csc(NCC(=O)c3ccc(Cl)cc3)n2)cc1`, the Activity is 220.5 g with Rattus norvegicus [1]; 12.35 cm in the series with Rattus norvegicus [2]; “Toxic” in the series on Rattus norvegicus [3]; 119.2 mg/dL in the series with Rattus norvegicus [4]; 136.6 mg/dL in the series with Rattus norvegicus [5]; 50 mg/dL in the series on Rattus norvegicus [6]. Further, the Activity in the series on Rattus norvegicus [7] was determined as 18.6 mg/dL; with Rattus norvegicus [8] it was 27.2 mg/dL.

For the molecule `O=C(O)COc1ccc(-c2csc(NCC(=O)c3ccc([N+](=O)[O-])cc3)n2)cc1`, the Activity was 258.166 g in the series on Rattus norvegicus [1]; 12.85 cm in the series with Rattus norvegicus [2]; “Non-toxic” in the series on Rattus norvegicus [3]; 106.8 mg/dL in the series on Rattus norvegicus [4]; 122.8 mg/dL with Rattus norvegicus [5]; 43.2 mg/dL with Rattus norvegicus [6]. Besides, the Activity in the series on Rattus norvegicus [7] is 24.6 mg/dL; in the series on Rattus norvegicus [8] it was 20.2 mg/dL.

Turning to `CC(C)OC(=O)C(C)(C)Oc1ccc(C(=O)c2ccc(Cl)cc2)cc1` [FENOFIBRATE], the Activity with Rattus norvegicus [9] was 229.666 g; in the series on Rattus norvegicus [10], 9.5 cm; in the series with Rattus norvegicus [11], “Toxic”; in the series on Rattus norvegicus [12] it was 83.2 mg/dL; in the series on Rattus norvegicus [13], 91.6 mg/dL; with Rattus norvegicus [14], 37.2 mg/dL. Besides, the Activity in the series on Rattus norvegicus [15] was 28.4 mg/dL.
